Source: US9499504B2, “Crystalline form of vortioxetine hydrobromide” (Sandoz AG, priority 2012, dated 2016)
Each block holds one compound with its values, some of them ahead of it.

Legend:
[1] = Solubility as a function of time in hexanol/n-heptane (1:39 v:v), UV-spectrophotometry; assay type: physicochemical; settings: 25±1° C., UV at 227 nm, hydrobromide
Text: It is known to a person skilled in the art that the difference in the relative solubility of two polymorphs is independent from the solvent system, if an “ideal solution”, meaning a solution which is not too concentrated, is present. (see e.g. Kuhnert-Brandstätter M., Burger A., Pharmazeutische Industrie, 1972, 34, Nr. 3, 187-190; Samuel H. Yalowsky, Solubility and Solubilization in Aqueous Media, ACS, Oxford University Press 1999, ISBN: 0-8412-3576-7, p. 98). Therefore the solubilities of vortioxetine hydrobromide forms alpha and beta of WO 2007/144005 A1 and the compound of the present invention were determined in a mixture of hexanol and n-heptane. […] (see example 4 of the present invention).
The solubilities as a function of time were determined for vortioxetine hydrobromide polymorphs alpha, beta and the crystalline compound of the present invention, respectively. Therefore approximately 100 mg of each polymorph (polymorph alpha and beta were obtained according to the procedures disclosed in WO 2007/144005 A1, the crystalline compound of the present invention was obtained according to the procedure disclosed in example 1 herein) were stirred in 50 mL of a mixture of hexanol/n-heptane (1:39=v:v) at 25±1° C. Subsequently 5 mL were taken from each suspension after 1, 5, 10, 15, 30 and 60 minutes with the aid of a volumetric pipette and filtered. The concentrations of the obtained solutions were determined directly by UV-spectrophotometry (apparatus: Shimadzu UV1800) at 227 nm.
The determination of the extinction coefficient was performed with polymorph delta as a calibration substance.

[2] = Water solubility calculated from relative solubilities and WO 2007/144005 A1 water solubility data; settings: calculation with water solubility value of polymorph alpha (2.0 mg/mL) from WO 2007/144005 A1, hydrobromide
Text: (§1) Using the water solubility values of polymorphs alpha and beta provided in WO 2007/144005 A1 and the herein determined relative solubilities of polymorphs alpha, beta and delta the water solubility of the crystalline compound of the present invention can be calculated.

physchem = settings: water
Text: as §1

[3] = Gravimetric moisture sorption/desorption cycle; assay type: physicochemical
Text: In addition, an active pharmaceutical ingredient is preferably non-hygroscopic in order to ensure the chemical and physical quality during the storage of the active substance itself. Furthermore, an active pharmaceutical ingredient is preferably non-hygroscopic in order to ensure the chemical and physical quality also during the shelf-life of a solid finished dosage form containing the active substance. Special and expensive packaging can then be avoided. […] For instance, in example 4f of WO 2007/144005 A1, it is mentioned that form gamma absorbs about 4.5% water when exposed to high relative humidity and in example 4h of the same application it is stated that the water content of the hemihydrate strongly depends on the relative humidity. For instance, the water content of the hemihydrate at 95% relative humidity is about 3.7% according to example 4h of WO 2007/144005.
Gravimetric moisture sorption/desorption curves were acquired using a SPS-11 moisture sorption analyzer (MD Messtechnik, Ulm, D). The measurement cycle was started at 43% relative humidity (RH) and decreased in 10% steps down to 0% RH; up to 95% RH, down to 0% RH and up to 43% RH. The equilibrium condition for each step was set to a mass constancy of ±0.01% over 30 min. The temperature was 25±0.1° C.

[4] = Solid-state stability of the hydrate at room temperature; assay type: physicochemical; settings: not stable
Text: The novel hydrate of vortioxetine hydrobromide is not stable at room temperature and converts to form alpha of WO 2007/144005 A1 within about 4 weeks.

[5] = exposed to high relative humidity; example 4f of WO 2007/144005 A1; cited from earlier work

absolute solubility in hexanol/n-heptan (1:39 = v:v) ([1]; listed as present invention): 48 µg/mL | calculated water solubility 1) ([2]; listed as compound of the present invention): 3000 µg/mL | solubility (physchem): 3800 µg/mL | hygroscopicity ([3]; according to the specifications of the European Pharmacopoeia): non-hygroscopic | water content ([3]; relative humidity of about 0%, 25° C.): about 0.3% | water content ([3]; relative humidity of about 80%, 25° C.): about 0.5% | water content ([3]; up to a relative humidity of about 95%): less than 0.7%
SMILES: Br.Cc1ccc(Sc2ccccc2N2CCNCC2)c(C)c1 [polymorph delta, 1-{2-[(2,4-dimethylphenyl)sulfanyl]phenyl}piperazine hydrobromide]

absolute solubility in hexanol/n-heptan (1:39 = v:v) ([1]; listed as beta): 15 µg/mL | calculated water solubility 1) [2]: 1000 µg/mL
SMILES: Br.Cc1ccc(Sc2ccccc2N2CCNCC2)c(C)c1 [polymorph beta, 1-{2-[(2,4-dimethylphenyl)sulfanyl]phenyl}piperazine hydrobromide, reference compound]

The remaining lines, values behind:

SMILES: Cc1ccc(Sc2ccccc2N2CCNCC2)c(C)c1
time to conversion to form alpha [4]: ≤ 4 weeks

SMILES: Br.Cc1ccc(Sc2ccccc2N2CCNCC2)c(C)c1 [form gamma, 1-{2-[(2,4-dimethylphenyl)sulfanyl]phenyl}piperazine hydrobromide]
water absorbed [5]: about 4.5%

SMILES: Br.Cc1ccc(Sc2ccccc2N2CCNCC2)c(C)c1 [polymorph alpha, 1-{2-[(2,4-dimethylphenyl)sulfanyl]phenyl}piperazine hydrobromide]
absolute solubility in hexanol/n-heptan (1:39 = v:v) ([1]; listed as alpha): 31 µg/mL
